Consider five compounds from ChEMBL document CHEMBL1148137, “Multibranched polyunsaturated and very-long-chain fatty acids of freshwater Israeli sponges” (J Nat Prod, 2002).

One data set has as its system Artemia salina. Nature of the data set: Toxicity to Artemia salina assessed as mortality after 24 hrs. In kind it is organism-based. The settings on record: in vivo.
For the next data set, the system named is Staphylococcus aureus. The data set is described as follows: Antibacterial activity against Staphylococcus aureus CCM 2551 at 50 ug/disk. It is filed as functional. More on the design: unit not given here. The following applies: read-out: Diameter of inhibition zone.
Another data set concerns Escherichia coli. The data set is described as follows: Antibacterial activity against Escherichia coli at 50 ug/disk. It is filed as functional.
In another data set the test system is Bacillus subtilis. Nature of the data set: Antibacterial activity against Bacillus subtilis CCM 2216 at 50 ug/disk. It is filed as functional. Further details: unit not given here.
The subject of the next data set is Saccharomyces cerevisiae. Nature of the data set: Antifungal activity against Saccharomyces cerevisiae at 50 ug/disk. In kind it is functional.
Where [1] appears, read: read-out: Diameter of inhibition zone.

In the case of `CCCCCCCCCC[C@H](C)/C=C(C)/C=C/C(=O)OC`, the MLD with Artemia salina came out at 4.9 µg/mL. Also, the zone of inhibition at 50 µg/disc in the data set with Staphylococcus aureus worked out at 56.7; in the data set with Escherichia coli (setting [1]) it was 0 mm; with Bacillus subtilis (setting [1]) it was 81; in the data set with Saccharomyces cerevisiae (setting [1]) it was 0 mm.

As for `C=C(CC/C=C/C=C/CC(C)C)C[C@@H](C)C/C(C)=C/C(=O)OC`, the MLD in the data set on Artemia salina was determined as 1.7 µg/mL. The zone of inhibition at 50 µg/disc with Staphylococcus aureus came out at 84.1; with Escherichia coli (setting [1]) it was 0 mm; in the data set with Bacillus subtilis (setting [1]), 74.9; in the data set on Saccharomyces cerevisiae (setting [1]), 0 mm.

Turning to `CC[C@H](C)/C=C/C(C)=C/C[C@H](C)/C=C/C=C/C(=O)OC`, the MLD with Artemia salina was found to be 10.2 µg/mL. Further, the zone of inhibition at 50 µg/disc in the data set on Staphylococcus aureus worked out at 49; with Escherichia coli (setting [1]), 0 mm; in the data set with Saccharomyces cerevisiae (setting [1]) it was 0 mm.

In the case of `C=C/C(C)=C/C[C@H](C)/C=C(C)/C=C(C)\C=C\C=C\C(=O)OC`, the MLD in the data set with Artemia salina is 1.1 µg/mL. The zone of inhibition at 50 µg/disc in the data set on Staphylococcus aureus was found to be 62.4; in the data set on Escherichia coli (setting [1]), 0 mm; in the data set on Bacillus subtilis (setting [1]), 89; in the data set with Saccharomyces cerevisiae (setting [1]) it was 0 mm.

Take `CC[C@@H](C)CC/C=C/C(C)=C/[C@H](C)C/C=C/C=C/C(=O)OC`: the MLD in the data set on Artemia salina was determined as 5 µg/mL. Also, the results for the zone of inhibition at 50 µg/disc in the data set on Escherichia coli (read-out: IZ), in the data set on Bacillus subtilis (read-out: IZ) and in the data set on Saccharomyces cerevisiae (read-out: IZ) were 0 mm, 78.1 and 0 mm, respectively.
